The target of test [1] is T1, human ARG2 (arginase 2) (Homo sapiens, UniProt P78540).
T1 sequence (P78540 23-354): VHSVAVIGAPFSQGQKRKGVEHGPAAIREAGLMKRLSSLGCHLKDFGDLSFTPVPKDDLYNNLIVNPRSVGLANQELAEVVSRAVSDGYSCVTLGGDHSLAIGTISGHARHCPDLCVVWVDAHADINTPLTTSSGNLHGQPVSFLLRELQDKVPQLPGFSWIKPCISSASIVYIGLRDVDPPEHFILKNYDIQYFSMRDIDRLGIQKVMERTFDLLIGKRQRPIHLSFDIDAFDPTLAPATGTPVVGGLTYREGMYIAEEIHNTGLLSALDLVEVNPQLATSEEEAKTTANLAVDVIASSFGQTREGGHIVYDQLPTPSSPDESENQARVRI
Nature of the test: enzymatic arginase inhibition assay (data not shown). The class given is biochemical.

In test [2] the target is T2, human ARG1 (arginase 1) (Homo sapiens, UniProt P05089).
T2 sequence (P05089 1-322): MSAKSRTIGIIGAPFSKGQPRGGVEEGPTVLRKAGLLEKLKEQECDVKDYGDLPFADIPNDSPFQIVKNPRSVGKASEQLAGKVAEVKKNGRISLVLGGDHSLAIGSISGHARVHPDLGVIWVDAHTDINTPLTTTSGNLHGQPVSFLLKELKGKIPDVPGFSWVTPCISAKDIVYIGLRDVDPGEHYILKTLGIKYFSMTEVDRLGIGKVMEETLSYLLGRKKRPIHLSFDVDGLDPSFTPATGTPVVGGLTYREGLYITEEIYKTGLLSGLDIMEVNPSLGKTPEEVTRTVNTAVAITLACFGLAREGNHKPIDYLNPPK
The test is described as above. The class given is biochemical.

For the molecule `N[C@](CCCCB(O)O)(CCN1CCCCC1)C(=O)O` [compound 9, (R)-2-amino-6-borono-2-(2-(piperidin-1-yl)ethyl) hexanoic acid], the IC50 in test [1] stood at 2.7 µM; in test [2] it was 1.1 µM.

The values above are taken from publication PMC6366094, “Suppression of Myeloid Cell Arginase Activity leads to Therapeutic Response in a NSCLC Mouse Model by Activating Anti-Tumor Immunity” (Journal for Immunotherapy of Cancer, 2019).
